Measured values as given in ChEMBL document CHEMBL1201862, “PubChem BioAssay data set” (2004).
Calls of active or inactive are those of the source.

What was measured:
[1] = biological target: Beta-galactosidase (Escherichia coli, UniProt Q8VNN2); assay: Dose response counterscreen for EBI2 assay utilizing the enzyme, b-galactosidase.; type: functional
[2] = biological target: 5-hydroxytryptamine receptor 2A (Mus musculus, UniProt P35363); type: functional, cell-based;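 further: CHO-K1 cells with tagged receptor and beta-arrestin; agonist potency measured as compound-induced activation of the receptor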
[3] = biological target: Mu-type opioid receptor (Homo sapiens, UniProt P35372); type: functional, cell-based;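 further: U2OS cells with beta-arrestin recruitment to OPRM1 by beta-gal complementation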
[4] = biological target: T1, Trace amine-associated receptor 1 (Homo sapiens, UniProt Q96RJ0); assay: Fluorescence-based cell-based high throughput dose response assay to identify agonists of the human trace amine associated receptor 1 (TAAR1).; type: functional
T1 sequence (Q96RJ0 whole entry): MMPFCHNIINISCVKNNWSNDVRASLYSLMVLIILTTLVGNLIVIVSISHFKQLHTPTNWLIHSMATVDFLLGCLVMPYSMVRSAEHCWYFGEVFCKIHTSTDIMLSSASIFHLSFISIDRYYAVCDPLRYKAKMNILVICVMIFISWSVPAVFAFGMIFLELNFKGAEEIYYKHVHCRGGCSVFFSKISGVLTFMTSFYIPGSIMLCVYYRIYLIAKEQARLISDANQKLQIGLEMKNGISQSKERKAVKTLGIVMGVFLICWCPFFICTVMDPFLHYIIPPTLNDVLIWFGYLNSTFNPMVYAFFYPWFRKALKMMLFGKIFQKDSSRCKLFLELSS

[5] = cells; type: functional, cell-based
[6] = cells; type: functional, cell-based; remark: listed apart in the source
[7] = biological target: T1, Trace amine-associated receptor 1; assay: Counterscreen for agonists of the human trace amine associated receptor 1 (hTAAR1): Fluorescence-based cell-based high throughput dose response assay to identify hTAAR1 agonist that also desensitize TAAR1 receptor response.; type: functional
[8] = Vero E6 cell cytotoxicity, dose response, cytotoxicity control for non-replicating M. tuberculosis project, secondary assay (AID 492998); type: functional, VeroE6; conditions: Vero C1008
[9] = THP-1 cell cytotoxicity, dose response, cytotoxicity control for non-replicating M. tuberculosis project (AID 489025); type: functional
[10] = biological target: Albumin (Bos taurus, UniProt P02769); assay: Counterscreen for inhibitors of T-cell receptor (TCR)-CD3 interaction: Fluorescence-based biochemical high throughput dose response assay to identify inhibitors of T-cell receptor (TCR)-CD3 interaction using a TAMRA-labeled BSA probe.; type: functional
[11] = NIH-3T3 fibroblast cytotoxicity, dose response, cytotoxicity control, cell-based, fluorescence, Alamar Blue, secondary assay (AID 2327); type: functional;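 further: NIH-3T3 mouse fibroblasts cultured with fluconazole at 8 µg/mL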
[12] = cells; type: functional
[13] = C. albicans growth with fluconazole, confirmation, fluorescence, retest (AID 2467); type: functional, cell-based
[14] = microbe, parasite or virus in culture; type: functional; conditions: Mycobacterium tuberculosis
[15] = biological target: T2, Methionyl-tRNA synthetase, putative (Trypanosoma brucei brucei, UniProt Q38C91); type: functional, Trypanosoma brucei brucei strain 927/4 GUTat10.1
T2 sequence (Q38C91 whole entry): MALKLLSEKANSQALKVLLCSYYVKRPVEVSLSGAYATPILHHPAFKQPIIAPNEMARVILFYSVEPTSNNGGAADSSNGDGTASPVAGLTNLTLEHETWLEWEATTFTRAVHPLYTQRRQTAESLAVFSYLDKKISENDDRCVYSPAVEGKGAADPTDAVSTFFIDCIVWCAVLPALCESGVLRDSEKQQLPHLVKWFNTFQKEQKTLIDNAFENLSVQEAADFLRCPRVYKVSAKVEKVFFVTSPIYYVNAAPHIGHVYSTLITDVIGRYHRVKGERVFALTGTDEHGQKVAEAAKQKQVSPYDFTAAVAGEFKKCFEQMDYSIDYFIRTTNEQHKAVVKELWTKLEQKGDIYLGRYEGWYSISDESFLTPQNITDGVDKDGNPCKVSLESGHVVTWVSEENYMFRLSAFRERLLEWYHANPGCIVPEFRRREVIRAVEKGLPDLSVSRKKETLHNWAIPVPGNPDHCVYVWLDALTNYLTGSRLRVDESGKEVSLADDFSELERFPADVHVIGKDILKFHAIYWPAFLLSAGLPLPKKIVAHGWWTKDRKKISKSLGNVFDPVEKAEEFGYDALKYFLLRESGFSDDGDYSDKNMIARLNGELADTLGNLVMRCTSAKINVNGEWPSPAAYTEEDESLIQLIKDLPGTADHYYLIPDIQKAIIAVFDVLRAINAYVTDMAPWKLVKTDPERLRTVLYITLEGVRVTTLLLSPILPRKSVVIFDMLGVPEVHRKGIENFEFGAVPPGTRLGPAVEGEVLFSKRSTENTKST

[16] = biological target: T3, Heat shock factor protein 1 (Mus musculus, UniProt P38532); assay: HSF1 potentiators in luciferase reporter cells, confirmation, cell-based, NIH3T3, luminescence, dose retest (AID 435004); type: functional;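 further: stress induced by proteasome inhibitor MG132 added 30 min after compound; luciferase reporter driven by HSF1 response element in NIH3T3 cells; actives raise luminescence as potentiators of the MG132 stress response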
T3 sequence (P38532 whole entry): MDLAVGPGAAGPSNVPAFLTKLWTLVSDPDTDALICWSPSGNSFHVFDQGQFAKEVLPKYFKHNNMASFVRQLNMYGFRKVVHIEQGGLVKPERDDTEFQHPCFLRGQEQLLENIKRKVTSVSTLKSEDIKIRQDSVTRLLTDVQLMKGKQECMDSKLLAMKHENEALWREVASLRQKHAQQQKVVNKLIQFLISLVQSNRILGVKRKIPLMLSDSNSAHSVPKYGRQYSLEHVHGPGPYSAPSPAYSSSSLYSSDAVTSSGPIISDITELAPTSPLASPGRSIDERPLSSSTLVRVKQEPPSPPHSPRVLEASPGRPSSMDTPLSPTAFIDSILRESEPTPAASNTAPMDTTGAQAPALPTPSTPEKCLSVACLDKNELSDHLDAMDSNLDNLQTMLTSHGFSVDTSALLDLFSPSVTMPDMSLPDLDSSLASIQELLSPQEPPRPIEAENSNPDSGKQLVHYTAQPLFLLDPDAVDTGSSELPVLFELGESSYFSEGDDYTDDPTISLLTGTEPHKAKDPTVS

[17] = Counterscreen for inhibitors of Trypanosoma brucei methionyl tRNA synthetase (MetRS): Luminescence-based cell-based high throughput dose response assay to identify compounds that are cytotoxic to Jurkat human T lymphocyte cells.; type: functional
[18] = biological target: T2, Methionyl-tRNA synthetase, putative; type: functional, Trypanosoma brucei brucei strain 927/4 GUTat10.1; remark: listed apart in the source
[19] = inhibitors of HIV Env-driven cell fusion, dose response, cherry-pick (AID 652057); type: functional, cell-based
[20] = off-target signal loss in HeLa-CEM21 co-culture – HeLa F-luc CTL cells, cherry-picked, counter-screen for HIV-1 Env fusion inhibitor project, dose response (AID 652040); type: functional, cell-based;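 further: potency for signal decrease marking cytotoxic or nonspecific inhibition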
[21] = ZM109 Env clade C HIV-1 fusion inhibitors, dose response, HeLa effector, CEM target cells, luciferase, cherry-pick (AID 652058); type: functional, cell-based
[22] = inhibitors of clade B AD8 Env fusion, dose response, cell-based, cherry-pick (AID 652062); type: functional;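 further: luciferase signal from cell-cell fusion driven by HIV-1 clade B AD8 Env; potency is for inhibitors of fusion seen as a drop in luminescence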
[23] = MC4R antagonists, dose response, counter-screen for LGR2 antagonist project, cell-based, plate reader, cherry pick (AID 743444); type: functional;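 further: transfected HEK 293 cells stimulated with alpha-MSH peptide; potency of inhibitors of the alpha-MSH evoked signal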
[24] = HEK293 cell cytotoxicity, dose response, cytotoxicity control, plate reader, cherry-picked samples (AID 743446); type: functional, cell-based
[25] = HepG2 cell cytotoxicity, dose response, cytotoxicity control, plate reader, cherry-pick, antagonist series (AID 743416); type: functional, cell-based
[26] = LGR2 antagonists, dose response, cell-based, HEK293, CRE-luciferase reporter, cherry pick, set 2 (AID 743343); type: functional;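 further: transfected cells were stimulated with diluted bursicon conditioned medium after compound addition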
[27] = HEp-2 cell cytotoxicity, dose response, cytotoxicity control for RSV inhibitor project, HTS (AID 2410); type: functional; conditions: human respiratory syncytial virus
[28] = A549 cell cytotoxicity, dose response, cytotoxicity control, plate reader, cherry-pick, antagonist series (AID 743412); type: functional, cell-based
[29] = HEK293 cell viability, dose response, counter-screen for EBV LMP1 inhibitor project, dry powder, set 2 (AID 624374); type: functional
[30] = Cytotoxicity screening for potential Inhibitors of Bacterial Capsule Biogenesis (4).; type: functional
[31] = tested on: Streptococcus; assay: Group A Streptococcus viability loss, dose response, counter-screen for streptokinase expression inhibitor project, luminescence, BacTiterGlo (AID 1915); type: functional, organism-based;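 further: potency for reduction of bacterial viability or growth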
[32] = tested on: Streptococcus sp. 'group A'; assay: growth inhibition of control SK(-) GAS strain, dose response, counter-screen for streptokinase expression inhibitor project, luminescence, kanamycin, BacTiterGlo, confirmation (AID 1900); type: functional, organism-based

Chain of Beta-galactosidase (Q8VNN2 whole entry): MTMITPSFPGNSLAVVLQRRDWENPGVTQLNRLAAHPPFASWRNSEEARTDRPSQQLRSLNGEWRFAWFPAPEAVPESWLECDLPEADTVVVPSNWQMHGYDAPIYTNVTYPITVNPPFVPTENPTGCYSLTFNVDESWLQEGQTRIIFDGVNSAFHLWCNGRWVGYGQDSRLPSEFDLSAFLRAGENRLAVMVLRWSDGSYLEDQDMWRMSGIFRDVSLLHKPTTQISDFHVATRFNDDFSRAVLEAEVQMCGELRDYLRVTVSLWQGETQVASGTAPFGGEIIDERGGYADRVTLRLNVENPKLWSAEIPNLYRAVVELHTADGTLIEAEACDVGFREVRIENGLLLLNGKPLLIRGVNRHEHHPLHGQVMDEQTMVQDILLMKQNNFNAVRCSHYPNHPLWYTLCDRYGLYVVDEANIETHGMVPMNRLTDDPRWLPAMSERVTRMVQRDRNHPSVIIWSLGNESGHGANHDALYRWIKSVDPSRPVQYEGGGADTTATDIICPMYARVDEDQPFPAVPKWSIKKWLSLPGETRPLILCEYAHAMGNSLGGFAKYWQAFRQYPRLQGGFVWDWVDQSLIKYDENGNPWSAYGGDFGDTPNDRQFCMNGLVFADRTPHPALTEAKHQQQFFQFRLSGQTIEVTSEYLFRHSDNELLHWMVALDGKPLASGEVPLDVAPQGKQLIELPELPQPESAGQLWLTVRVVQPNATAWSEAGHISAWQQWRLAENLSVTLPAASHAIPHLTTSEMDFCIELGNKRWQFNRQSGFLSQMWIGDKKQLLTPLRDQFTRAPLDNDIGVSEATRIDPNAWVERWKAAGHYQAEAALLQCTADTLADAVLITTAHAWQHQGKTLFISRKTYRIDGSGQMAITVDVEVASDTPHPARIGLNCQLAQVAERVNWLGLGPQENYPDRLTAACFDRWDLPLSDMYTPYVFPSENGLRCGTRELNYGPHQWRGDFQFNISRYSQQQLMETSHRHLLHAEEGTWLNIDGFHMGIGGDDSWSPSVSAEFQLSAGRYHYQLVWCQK
Chain of Mu-type opioid receptor (P35372 whole entry): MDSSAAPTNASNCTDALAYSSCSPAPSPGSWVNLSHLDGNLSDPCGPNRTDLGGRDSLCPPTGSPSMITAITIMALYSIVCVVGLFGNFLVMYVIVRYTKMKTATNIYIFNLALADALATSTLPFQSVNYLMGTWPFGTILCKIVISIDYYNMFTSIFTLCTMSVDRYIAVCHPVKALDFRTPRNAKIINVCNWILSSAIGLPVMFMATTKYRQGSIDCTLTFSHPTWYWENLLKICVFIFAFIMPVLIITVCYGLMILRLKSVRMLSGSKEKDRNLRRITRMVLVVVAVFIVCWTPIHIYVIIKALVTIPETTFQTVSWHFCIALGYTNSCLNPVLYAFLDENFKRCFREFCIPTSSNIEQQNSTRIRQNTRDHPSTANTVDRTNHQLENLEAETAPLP
Chain of Albumin (P02769 whole entry): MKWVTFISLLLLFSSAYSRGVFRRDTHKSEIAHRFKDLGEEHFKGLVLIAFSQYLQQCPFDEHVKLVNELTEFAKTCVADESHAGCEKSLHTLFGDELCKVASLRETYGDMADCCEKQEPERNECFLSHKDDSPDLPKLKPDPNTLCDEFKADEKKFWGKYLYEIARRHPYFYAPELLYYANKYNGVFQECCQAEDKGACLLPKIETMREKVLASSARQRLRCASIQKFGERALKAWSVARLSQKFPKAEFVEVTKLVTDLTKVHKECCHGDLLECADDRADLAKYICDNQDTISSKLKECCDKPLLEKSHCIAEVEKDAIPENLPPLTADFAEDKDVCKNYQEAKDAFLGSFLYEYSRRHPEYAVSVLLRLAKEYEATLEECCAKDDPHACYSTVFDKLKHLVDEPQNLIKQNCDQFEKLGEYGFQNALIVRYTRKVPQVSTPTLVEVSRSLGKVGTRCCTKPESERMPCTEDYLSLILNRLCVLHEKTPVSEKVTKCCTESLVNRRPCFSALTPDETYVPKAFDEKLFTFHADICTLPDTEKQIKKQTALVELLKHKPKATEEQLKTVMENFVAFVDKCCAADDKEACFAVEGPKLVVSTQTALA
Chain of 5-hydroxytryptamine receptor 2A (P35363 whole entry): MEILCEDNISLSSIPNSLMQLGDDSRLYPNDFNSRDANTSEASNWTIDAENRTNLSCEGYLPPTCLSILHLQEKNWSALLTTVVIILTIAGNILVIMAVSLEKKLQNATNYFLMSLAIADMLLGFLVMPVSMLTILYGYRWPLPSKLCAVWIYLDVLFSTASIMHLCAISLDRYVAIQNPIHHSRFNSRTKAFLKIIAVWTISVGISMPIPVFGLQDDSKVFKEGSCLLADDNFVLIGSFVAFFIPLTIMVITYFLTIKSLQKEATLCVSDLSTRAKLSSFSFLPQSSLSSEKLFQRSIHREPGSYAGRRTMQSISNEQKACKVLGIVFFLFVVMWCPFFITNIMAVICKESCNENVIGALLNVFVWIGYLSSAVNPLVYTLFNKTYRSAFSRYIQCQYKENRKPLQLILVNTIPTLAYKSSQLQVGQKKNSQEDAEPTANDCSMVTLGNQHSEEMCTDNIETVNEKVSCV

## COc1ccc(-n2cc(-c3ccc(Cl)cc3)nc2S)cc1
[1]
  IC50: > 80 µM (inactive)

## COc1cc(/C=C(\C#N)C(N)=O)ccc1OS(=O)(=O)c1ccc(C)cc1
[1]
  IC50: > 80 µM (inactive)

## COc1ccc(CN2CCN(C(=O)c3ccco3)CC2)cc1OC
[2]
  EC50: 2.8 µM (active)
[3]
  EC50: 92.5 µM (inactive)

## Cc1ccc(C)c(N2CN(CCC3=CCCCC3)CN=C2S)c1
[4]
  EC50: 4.03 µM (active)
[5]
  IC50: > 29.9 µM (inactive)
[6]
  EC50: > 29.9 µM (inactive)
[7]
  IC50: 7.73 µM (active)

## Cc1cc2oc3ccc(NCCCn4ccnc4)cc3c(=O)c2cc1C
[8]
  CC50: 14.6 µM (active)
[9]
  CC50: 26.9 µM (active)
[10]
  IC50: > 94.1 µM (inactive)
[11]
  EC50: 24.7 µM (active)
[12]
  IC50: 27.9 µM (active)
[13]
  EC50: 1.82 µM (active)
[14]
  CC50: 12.4 µM (active)

## Cc1cc2c(cc1S(=O)(=O)CCC(=O)NCCc1ccccc1)OCC(=O)N2
[4]
  EC50: 3.59 µM (active)
[5]
  IC50: > 29.9 µM (inactive)
[6]
  EC50: > 29.9 µM (inactive)
[7]
  IC50: 5.78 µM (active)

## Cn1c(CCCOc2ccc(Cl)cc2Cl)nnc1SCC(=O)Nc1cccc(F)c1
[15]
  IC50: 52.2 µM (inactive)
[16]
  EC50: 181 µM (active)
[17]
  IC50: 28.3 µM (inactive)
[18]
  IC50: 119 µM (inactive)

## Fc1cccc(CN2CCN(c3ncccn3)CC2)c1
[2]
  EC50: 0.277 µM (active)
[3]
  EC50: 92.5 µM (inactive)

## O=C(CCCCn1c(=O)[nH]c2ccccc2c1=O)N1CCN(c2cccc(C(F)(F)F)c2)CC1
[19]
  AC50: 11.1 µM (active)
[20]
  AC50: 16 µM (active)
[21]
  AC50: 3.8 µM (active)
[22]
  AC50: 8.93 µM (active)

## CCC(=O)Nc1cccc(-c2ccc(N3CCC(C)CC3)nn2)c1
[23]
  AC50: 10.3 µM (active)
[24]
  AC50: 35.7 µM (active)
[25]
  AC50: > 52 µM (inactive)
[26]
  AC50: 6.78 µM (active)
[27]
  CC50: 26.9 µM (active)
[28]
  AC50: > 52 µM (inactive)

## COc1ccc(NC(=O)CC2C(=O)N(C)C(=S)N2CCc2ccc(F)cc2)cc1 (stereo not given)
[15]
  IC50: 6.36 µM (active)
[17]
  IC50: 63.3 µM (inactive)
[18]
  IC50: 17.4 µM (inactive)

## O=C(Cc1cccc(Cl)c1)Nc1ccc(Br)cc1
[15]
  IC50: 7.49 µM (active)
[17]
  IC50: 83.3 µM (inactive)
[18]
  IC50: 11.1 µM (inactive)

## COc1ccc(-n2nnnc2C(c2ccccc2OC(F)(F)F)N2CCN(C/C=C/c3ccccc3)CC2)cc1 (stereo not given)
[1]
  IC50: > 80 µM (inactive)

## CC(CNC(=O)[C@H]1O[C@@H](n2cnc3c(=O)[nH]c(N)nc32)[C@H](O)[C@@H]1O)c1ccccc1 (stereo not given in full)
[4]
  EC50: 1.54 µM (active)
[5]
  IC50: > 29.9 µM (inactive)
[6]
  EC50: > 29.9 µM (inactive)
[7]
  IC50: 3.77 µM (active)

## CO[C@@H]1CN(C)C(=O)c2ccc(NC(C)=O)cc2OC[C@@H](C)N(Cc2ccccc2F)C[C@H]1C
[29]
  AbsAC35: 167.32 µM

## O=C(C[C@@H]1CC[C@@H]2[C@H](COC[C@@H](O)CN2Cc2ccc(Oc3ccccc3)cc2)O1)N1CCc2ccccc2C1
[29]
  AbsAC35: 79.64 µM

## N#C[C@@H]1[C@H](c2ccc(C#Cc3ccccc3F)cc2)[C@@H](CO)N1C(=O)c1cccnc1
[29]
  AbsAC35: 93.82 µM

## Cc1cnccc1NC(=O)c1ccc2ncsc2c1
[30]
  CC50: > 300 µM (inactive)

## Cc1cc(NC(=O)c2ccc3nc(NC(=O)OC(C)(C)C)sc3c2)ccn1
[30]
  CC50: 96.8 µM (active)

## O=C(Nc1ccncc1F)c1ccc2ncsc2c1
[30]
  CC50: > 300 µM (inactive)

## Cc1cc(C(=O)N/N=C/c2cc(Br)cc([N+](=O)[O-])c2O)c2ccccc2n1
[10]
  IC50: > 94.1 µM (inactive)
[31]
  EC50: 1.5 µM (active)
[32]
  EC50: 1.36 µM (active)
